Test results taken from BigSolDB 2.1.

CP(=O)(O)c1ccccc1
Conditions | solubility (mole fraction)
in 2-ethoxyethanol, 298.15 K | 0.252
in 2-ethoxyethanol, 303.15 K | 0.289
in 2-ethoxyethanol, 313.25 K | 0.348
in 2-ethoxyethanol, 318.15 K | 0.397
in 2-ethoxyethanol, 323.35 K | 0.441
in 2-ethoxyethanol, 328.25 K | 0.472
in 2-ethoxyethanol, 333.15 K | 0.519
in 2-ethoxyethanol, 338.45 K | 0.587
in 2-ethoxyethanol, 343.35 K | 0.639
in 2-ethoxyethanol, 348.35 K | 0.697
in 2-ethoxyethanol, 353.15 K | 0.751
in acetone, 293.15 K | 0.0473
in acetone, 298.15 K | 0.0609
in acetone, 303.25 K | 0.0816
in acetone, 308.15 K | 0.0995
in acetone, 313.35 K | 0.127
in acetone, 318.15 K | 0.165
in acetone, 323.25 K | 0.204
in benzene, 293.25 K | 0.0386
in benzene, 298.15 K | 0.0541
in benzene, 303.15 K | 0.0809
in benzene, 308.35 K | 0.113
in benzene, 313.25 K | 0.163
in benzene, 318.15 K | 0.218
in benzene, 323.25 K | 0.301
in benzene, 328.15 K | 0.419
in benzene, 333.35 K | 0.563
in chloroform, 293.15 K | 0.112
in chloroform, 298.25 K | 0.132
in chloroform, 303.15 K | 0.156
in chloroform, 308.35 K | 0.188
in chloroform, 313.15 K | 0.214
in chloroform, 318.45 K | 0.255
in chloroform, 323.15 K | 0.288
in chloroform, 328.15 K | 0.34
in dichloromethane, 288.55 K | 0.0465
in dichloromethane, 293.65 K | 0.0697
in dichloromethane, 296.15 K | 0.0904
in dichloromethane, 298.35 K | 0.104
in dichloromethane, 303.25 K | 0.164
in dichloromethane, 308.35 K | 0.235
in ethanol, 293.25 K | 0.205
in ethanol, 298.15 K | 0.266
in ethanol, 303.35 K | 0.333
in ethanol, 308.25 K | 0.39
in ethanol, 313.55 K | 0.486
in ethanol, 318.45 K | 0.614
in ethanol, 323.15 K | 0.734
in ethanol, 328.25 K | 0.872
in ethyl acetate, 288.35 K | 0.0484
in ethyl acetate, 293.15 K | 0.0621
in ethyl acetate, 298.25 K | 0.075
in ethyl acetate, 303.45 K | 0.0941
in ethyl acetate, 313.35 K | 0.152
in ethyl acetate, 318.15 K | 0.182
in ethyl acetate, 328.15 K | 0.265
in ethyl acetate, 333.35 K | 0.304
in ethyl acetate, 338.15 K | 0.359
in ethyl acetate, 343.25 K | 0.428
in methanol, 298.35 K | 0.317
in methanol, 303.15 K | 0.343
in methanol, 308.15 K | 0.372
in methanol, 313.25 K | 0.406
in methanol, 318.35 K | 0.439
in methanol, 323.15 K | 0.471
in methanol, 328.25 K | 0.499
in toluene, 293.25 K | 0.12
in toluene, 298.35 K | 0.147
in toluene, 303.25 K | 0.168
in toluene, 308.35 K | 0.204
in toluene, 313.15 K | 0.229
in toluene, 323.25 K | 0.327
in toluene, 328.35 K | 0.377
in toluene, 333.25 K | 0.418
in toluene, 338.15 K | 0.479
in toluene, 343.45 K | 0.564
in water, 298.15 K | 0.0154
in water, 303.35 K | 0.0204
in water, 310.45 K | 0.027
in water, 314.25 K | 0.032
in water, 320.45 K | 0.0414
in water, 324.15 K | 0.0477
in water, 329.25 K | 0.0579
in water, 333.65 K | 0.0679
in water, 338.75 K | 0.0865
in water, 343.45 K | 0.0968
in water, 348.25 K | 0.12
